In US8729095B2, “3-(biaryloxy)propionic acid derivatives for prevention and/or treatment of thromboembolic diseases” (Daiichi Sankyo Company, Limited, priority 2009, dated 2014):

tested on: platelet aggregation induced by ADP in human platelet-rich plasma (PRP); test: Human platelet aggregation inhibitory activity (ADP-induced, platelet-rich plasma); assay type: cell-based; details: 8 min, ADP final concentration 20 μM, maximum aggregation rate, measured for 8 minutes
Description: A blood collecting syringe containing 1/10 volume of a 3.8% sodium citrate solution was used to collect blood from radial vein of a healthy person. The collected blood was centrifuged at 180×g at room temperature for 10 minutes to separate the supernatant (platelet-rich plasma; PRP). After PRP was separately collected, the remaining blood was centrifuged at 1,600×g for 10 minutes to separately collect platelet-poor plasma (PPP) of the upper layer. PRP was left at rest at 16° C. for 30 minutes, and subsequently used for measurement.
200 μL of the separately collected PRP was dispensed into a cuvette for the aggregation test, and 1 μL of dimethylsulfoxide (control) or a test compound solution diluted with dimethylsulfoxide was added, followed by incubation at 37° C. for 2 minutes. Subsequently, 2 μL of 2 mM ADP was added (final concentration 20 μM) to induce platelet aggregation.
Platelet aggregation was measured for 8 minutes using an aggregometer (MCM HEMA TRACER 313M; MC MEDICAL, INC.). With the light transmittance rate of PPP being set as an aggregation value of 100%, the maximum aggregation rate was determined for each concentration of the test compounds to calculate IC50 values.

SMILES | IC50 [µM]
C[C@@H](COc1ccc(F)cc1-c1cnc(C(=O)N2CCC(N3C(=O)C(C)(C)Cc4ncc(Cl)cc43)CC2)c(F)c1)C(=O)O [Example 48, (2S)-3-[2-(6-{[4-(7-Chloro-3,3-dimethyl-2-oxo-3,4-dihydro-1,5-naphthyridin-1(2H)-yl)piperidin-1-yl]carbonyl}-5-fluoropyridin-3-yl)-4-fluorophenoxy]-2-methylpropanoic acid] | 3.7
CC1(C)Cc2ncc(Cl)cc2N(C2CCN(C(=O)c3ccc(-c4cc(F)ccc4OCCC(=O)O)cc3F)CC2)C1=O [Example 37, 3-[(4′-{[4-(7-Chloro-3,3-dimethyl-2-oxo-3,4-dihydro-1,5-naphthyridin-1(2H)-yl)piperidin-1-yl]carbonyl}-3′,5-difluorobiphenyl-2-yl)oxy]propanoic acid] | 6.6
Cc1cnc2c(c1)N(C1CCN(C(=O)c3ccc(-c4ccccc4O[C@H](C)CC(=O)O)cc3F)CC1)C(=O)C(C)(C)O2 [Example 30, (3R)-3-[(4′-{[4-(3,3,7-Trimethyl-2-oxo-2,3-dihydro-1H-pyrido[2,3-b][1,4]oxazin-1-yl)piperidin-1-yl]carbonyl}-3′-fluorobiphenyl-2-yl)oxy]butanoic acid] | 2
C[C@H](CC(=O)O)Oc1ccccc1-c1ccc(C(=O)N2CCC(N3C(=O)CCc4ncc(Cl)cc43)CC2)c(F)c1 [Example 8, (3R)-3-[(4′-{[4-(7-Chloro-2-oxo-3,4-dihydro-1,5-naphthyridin-1(2H)-yl)piperidin-1-yl]carbonyl}-3′-fluorobiphenyl-2-yl)oxy]butanoic acid] | 14
C[C@@H](COc1ccc(F)cc1-c1cnc(C(=O)N2CCC(N3C(=O)C(C)(C)Oc4ncc(Cl)cc43)CC2)c(F)c1)C(=O)O [Example 49, (2S)-3-[2-(6-{[4-(7-Chloro-3,3-dimethyl-2-oxo-2,3-dihydro-1H-pyrido[2,3-b][1,4]oxazin-1-yl)piperidin-1-yl]carbonyl}-5-fluoropyridin-3-yl)-4-fluorophenoxy]-2-methylpropanoic acid] | 1.7
Cc1cc(-c2ccccc2OCC(C)(C)C(=O)O)ccc1C(=O)N1CCC(N2C(=O)C3(CC3)Oc3ncc(Cl)cc32)CC1 [Example 15, 3-[(4′-{[4-(7′-Chloro-2′-oxospiro[cyclopropane-1,3′-pyrido[2,3-b][1,4]oxazin]-1′(2′H)-yl)piperidin-1-yl]carbonyl}-3′-methylbiphenyl-2-yl)oxy]-2,2-dimethylpropanoic acid] | 5.8
C[C@H](CC(=O)O)Oc1ccc(F)cc1-c1ccc(C(=O)N2CCC(N3C(=O)CCc4ncc(Cl)cc43)CC2)c(F)c1 [Example 32, (3R)-3-[(4′-{[4-(7-Chloro-2-oxo-3,4-dihydro-1,5-naphthyridin-1(2H)-yl)piperidin-1-yl]carbonyl}-3′,5-difluorobiphenyl-2-yl)oxy]butanoic acid] | 17
C[C@@H](COc1ccccc1-c1cnc(C(=O)N2CCC(N3C(=O)C(C)(C)Oc4ncc(Cl)cc43)CC2)c(F)c1)C(=O)O [Example 47, (2S)-3-[2-(6-{[4-(7-Chloro-3,3-dimethyl-2-oxo-2,3-dihydro-1H-pyrido[2,3-b][1,4]oxazin-1-yl)piperidin-1-yl]carbonyl}-5-fluoropyridin-3-yl)phenoxy]-2-methylpropanoic acid] | 2
C[C@@H](COc1ccccc1-c1ccc(C(=O)N2CCC(N3C(=O)CCc4ncc(Cl)cc43)CC2)c(F)c1)C(=O)O [Example 12, (2S)-3-[(4′-{[4-(7-Chloro-2-oxo-3,4-dihydro-1,5-naphthyridin-1(2H)-yl)piperidin-1-yl]carbonyl}-3′-fluorobiphenyl-2-yl)oxy]-2-methylpropanoic acid] | 16
C[C@@H]1Oc2ncc(Cl)cc2N(C2CCN(C(=O)c3ccc(-c4ccccc4OCC(C)(C)C(=O)O)cc3)CC2)C1=O [Example 20, 3-{[4′-({4-[(3S)-7-Chloro-3-methyl-2-oxo-2,3-dihydro-1H-pyrido[2,3-b][1,4]oxazin-1-yl]piperidin-1-yl}carbonyl)biphenyl-2-yl]oxy}-2,2-dimethylpropanoic acid] | 2.8
CC(C)(COc1ccccc1-c1ccc(C(=O)N2CCC(N3C(=O)C(C)(C)Oc4ncc(Cl)cc43)CC2)c(O)c1)C(=O)O [Example 21, 3-[(4′-{[4-(7-Chloro-3,3-dimethyl-2-oxo-2,3-dihydro-1H-pyrido[2,3-b][1,4]oxazin-1-yl)piperidin-1-yl]carbonyl}-3′-hydroxybiphenyl-2-yl)oxy]-2,2-dimethylpropanoic acid] | 8.7
C[C@H](CC(=O)O)Oc1ccccc1-c1ccc(C(=O)N2CCC(N3C(=O)COc4ncc(Cl)cc43)CC2)c(F)c1 [Example 7, (3R)-3-[(4′-{[4-(7-Chloro-2-oxo-2,3-dihydro-1H-pyrido[2,3-b][1,4]oxazin-1-yl)piperidin-1-yl]carbonyl}-3′-fluorobiphenyl-2-yl)oxy]butanoic acid] | 7.9
Cc1cnc2c(c1)N(C1CCN(C(=O)c3ccc(-c4ccccc4OCC(C)(C)C(=O)O)cc3F)CC1)C(=O)C(C)O2 (stereo not drawn) [Example 4, 3-[(4′-{[4-(3,7-Dimethyl-2-oxo-2,3-dihydro-1H-pyrido[2,3-b][1,4]oxazin-1-yl)piperidin-1-yl]carbonyl}-3′-fluorobiphenyl-2-yl)oxy]-2,2-dimethylpropanoic acid] | 4
C[C@H](CC(=O)O)Oc1ccc(F)cc1-c1ccc(C(=O)N2CCC(N3C(=O)COc4ncc(Cl)cc43)CC2)c(F)c1 [Example 31, (3R)-3-[(4′-{[4-(7-Chloro-2-oxo-2,3-dihydro-1H-pyrido[2,3-b][1,4]oxazin-1-yl)piperidin-1-yl]carbonyl}-3′,5-difluorobiphenyl-2-yl)oxy]butanoic acid] | 18
C[C@H](C(=O)O)[C@@H](C)Oc1ccccc1-c1ccc(C(=O)N2CCC(N3C(=O)C(C)(C)Oc4ncc(Cl)cc43)CC2)c(F)c1 [Example 33, (2S,3R)-3-[(4′-{[4-(7-Chloro-3,3-dimethyl-2-oxo-2,3-dihydro-1H-pyrido[2,3-b][1,4]oxazin-1-yl)piperidin-1-yl]carbonyl}-3′-fluorobiphenyl-2-yl)oxy]-2-methylbutanoic acid] | 16
C[C@@H]1Oc2ncc(F)cc2N(C2CCN(C(=O)c3ccc(-c4ccccc4OCC(C)(C)C(=O)O)cc3F)CC2)C1=O [Example 1, 3-{[3′-Fluoro-4′-({4-[(3S)-7-fluoro-3-methyl-2-oxo-2,3-dihydro-1H-pyrido[2,3-b][1,4]oxazin-1-yl]piperidin-1-yl}carbonyl)biphenyl-2-yl]oxy}-2,2-dimethylpropanoic acid] | 15
CC1(C)Oc2ncc(Cl)cc2N(C2CCN(C(=O)c3ccc(-c4ccccc4OCC4(C(=O)O)CC4)cc3F)CC2)C1=O [Example 23, 1-{[(4′-{[4-(7-Chloro-3,3-dimethyl-2-oxo-2,3-dihydro-1H-pyrido[2,3-b][1,4]oxazin-1-yl)piperidin-1-yl]carbonyl}-3′-fluorobiphenyl-2-yl)oxy]methyl}cyclopropanecarboxylic acid] | 5.2
Cc1cc(-c2ccccc2O[C@H](C)CC(=O)O)c(C)cc1C(=O)N1CCC(N2C(=O)C(C)(C)Oc3ncc(Cl)cc32)CC1 [Example 54, (3R)-3-[(4′-{[4-(7-Chloro-3,3-dimethyl-2-oxo-2,3-dihydro-1H-pyrido[2,3-b][1,4]oxazin-1-yl)piperidin-1-yl]carbonyl}-2′,5′-dimethylbiphenyl-2-yl)oxy]butanoic acid] | 11.4
